Measurements from patent US12291532B2, “Substituted xanthines as modulators of TRPC5 activity” (Boehringer Ingelheim International GmbH, priority 2018, dated 2025).

Molecular target: T1, TRPC5 (Homo sapiens, UniProt Q9UL62)
T1 construct: expressed in transfected cells; host or cells: HEK293 TREx (inducible expression, induced 20-48 hours)
T1 sequence (Q9UL62 1-973): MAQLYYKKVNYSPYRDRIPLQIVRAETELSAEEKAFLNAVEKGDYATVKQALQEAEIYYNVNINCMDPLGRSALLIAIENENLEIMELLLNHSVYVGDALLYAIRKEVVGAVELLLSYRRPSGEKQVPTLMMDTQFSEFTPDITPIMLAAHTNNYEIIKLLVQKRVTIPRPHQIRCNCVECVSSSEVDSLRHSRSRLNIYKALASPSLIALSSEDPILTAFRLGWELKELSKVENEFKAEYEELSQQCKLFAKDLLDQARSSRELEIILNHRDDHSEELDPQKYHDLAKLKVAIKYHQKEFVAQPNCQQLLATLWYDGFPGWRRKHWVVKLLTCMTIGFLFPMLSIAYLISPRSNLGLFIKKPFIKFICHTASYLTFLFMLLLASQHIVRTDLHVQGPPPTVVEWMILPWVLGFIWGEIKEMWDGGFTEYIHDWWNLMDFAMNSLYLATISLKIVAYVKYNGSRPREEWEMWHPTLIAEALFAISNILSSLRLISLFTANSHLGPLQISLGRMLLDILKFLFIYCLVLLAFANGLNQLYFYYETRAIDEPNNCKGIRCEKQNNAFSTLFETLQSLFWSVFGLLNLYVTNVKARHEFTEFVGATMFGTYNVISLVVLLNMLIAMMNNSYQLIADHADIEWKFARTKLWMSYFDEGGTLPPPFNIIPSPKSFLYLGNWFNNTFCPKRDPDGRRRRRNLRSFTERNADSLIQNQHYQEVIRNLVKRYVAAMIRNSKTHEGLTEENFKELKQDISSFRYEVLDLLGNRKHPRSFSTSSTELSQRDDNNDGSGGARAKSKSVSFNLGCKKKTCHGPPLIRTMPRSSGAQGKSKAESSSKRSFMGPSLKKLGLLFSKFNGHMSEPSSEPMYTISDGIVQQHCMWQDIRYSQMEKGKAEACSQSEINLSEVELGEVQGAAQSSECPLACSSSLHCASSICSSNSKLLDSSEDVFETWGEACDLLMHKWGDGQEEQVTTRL
Test: Assay A: Determination of TRPC5-Inhibition (whole-cell patch clamp)
Type: cell-based
Conditions: compounds of the present invention, TRPC5-expressing HEK293 TREx cells, current activated by LaCl3
Excerpt: Assay A: Determination of TRPC5-Inhibition
Patch clamp experiments permit the detection of currents through the TRPC5 channel in a cell line. In normal whole-cell patch clamp recordings, a glass electrode is brought into contact with a single cell and a high-resistance (gigaohm) seal is established with the cell membrane. The membrane is then ruptured to achieve the whole-cell configuration, permitting control of the voltage of the cell membrane and measurement of currents flowing across the membrane using the amplifier attached to the electrode and resulting in the replacement of cytoplasm with the pipette solution. A perfusion system permits control of the extracellular solution, including the addition of blockers and activators of the current. The current can be activated by including 1.4 μM free Ca2+ in the pipette (intracellular) solution, and 80 μM LaCl3 in the extracellular solution.
TRPC5 cells were induced 20-48 hours, removed from growth plates, and replated at low density (to attain good single-cell physical separation) on glass coverslips for measurement. In some cases, cells were grown in low density overnight on glass coverslips. Patch clamp recordings were made in the whole-cell mode with a holding potential of −40 mV. Every 5 seconds, a voltage ramp was applied from −120 to +100 mV, 400 ms in duration. Currents elicited were quantified at −80 mV and +80 mV. The internal solution consisted of 140 mM cesium aspartate, 10 mM HEDTA, 2 mM CaCl2, 2.27 mM MgCl2 and 10 mM HEPES, pH 7.2, with 1,400 nM calculated free Ca2+. The external solution consisted of 150 mM NaCl, 4.5 mM 15 KCl, 1 mM MgCl2, 2 mM CaCl2, 10 mM HEPES, 10 mM glucose, 1 mM EGTA, pH 7.4. Upon addition of LaCl3, TRPC5 current was induced only in TRPC5-expressing cells and not in parental HEK293 TREx cells. Removal of the LaCh stimulus causes most of the current to go away. Potential blockers were tested for ability to block both inward and outward currents in the continued presence of LaCl3.
IC50 of a compound of the invention was estimated by testing the compound 500 nM. […] Compounds blocking 50% or more at 500 nM are retested at multiple concentrations, and the % block is fitted by standard equations to determine […] accurately, using a […] concentration-response experiment.

Question: How did the IC50 turn out when CCn1c(=O)n(CCCO)c(=O)c2c1nc(-c1ncc(OC3CCC3)nc1C)n2Cc1ccccc1 [Example 6] was run?
Answer: 1.22 nM

Question: Which IC50 does the source give for CCn1c(=O)n(CCCO)c(=O)c2c1nc(-c1cnc(OC3CCC3)cn1)n2Cc1ccccc1 [Example 4] here?
Answer: 1.11 nM

Question: Which IC50 does the source give for CCn1c(=O)n(CCCO)c(=O)c2c1nc(-c1ncc(OC3CCC3C)nc1C)n2Cc1ccc(F)cc1 (stereo not drawn) [Example 5] here?
Answer: 0.29 nM

Question: With CCn1c(=O)n(CCCO)c(=O)c2c1nc(-c1cnc(OC3CCC3)cn1)n2Cc1ccc(F)cc1 [Example 3] as the compound, how does the IC50 read?
Answer: 0.506 nM

Question: With Cc1nc(OC2CCC2)cnc1-c1nc2c(c(=O)n(CCCO)c(=O)n2C(C)C)n1Cc1ccccc1 [Example 2] as the compound, how does the IC50 read?
Answer: 0.207 nM

Question: How did the IC50 turn out when CCn1c(=O)n(CCCO)c(=O)c2c1nc(-c1ncc(OC3CCC3C)nc1C)n2Cc1ccc(Cl)cc1 (stereo not drawn) [Example 1] was run?
Answer: 0.172 nM
